System: HepaRG
Assay: LDH release cytotoxicity, % of total lysis control; higher = more cytotoxic
Settings: 48 h
Summary of the method: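 The CytoTox-ONE kit was used to read LDH in 50 µL spent medium as resorufin fluorescence on a Tecan Safire, with 0.1% Triton X added to total lysis wells. Beforehand, single-lot HepaRG cells on collagen I-coated 96-well plates had been exposed in duplicate for 48 h to eight-point half-log series (top 100 µM) in serum-free induction medium containing 0.5% DMSO. Percent cytotoxicity was normalized against on-plate vehicle and total lysis controls and averaged over duplicates.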

CN(C)C(=S)[S-].CN(C)C(=S)[S-].[Zn+2] [Ziram]
Settings	LDH release cytotoxicity [%]
0.03162 µM	-1.6
0.1 µM	-1.5
0.3162278 µM	-1.92
1 µM	-1.52
3.16228 µM	-1.1
10 µM	-0.764
31.6228 µM	37.6
100 µM	46.8

CCC(C)(NC(=O)c1cc(Cl)c(C)c(Cl)c1)C(=O)CCl (configuration not stated) [Zoxamide]
Settings	LDH release cytotoxicity [%]
0.0317809 µM	-0.27
0.1005 µM	-0.966
0.317809 µM	-0.7429
1.005 µM	-1.43
3.17809 µM	-0.947
10.05 µM	-0.343
31.7809 µM	-1.15
100.5 µM	41.9

CC(C=CC1=C(C)CCCC1(C)C)=CC=CC(C)=CC(=O)O [all-trans-Retinoic acid]
Settings	LDH release cytotoxicity [%]
0.03162 µM	-2.15
0.1 µM	-2.16
0.3162278 µM	-1.95
1 µM	-2.25
3.16228 µM	-2.56
10 µM	-1.87
31.6228 µM	-1.86
100 µM	2.13

OCC1OC2OC3C(CO)OC(OC4C(CO)OC(OC5C(CO)OC(OC6C(CO)OC(OC7C(CO)OC(OC1C(O)C2O)C(O)C7O)C(O)C6O)C(O)C5O)C(O)C4O)C(O)C3O (stereo not drawn) [alpha-Cyclodextrin]
Settings	LDH release cytotoxicity [%]
0.016602 µM	-2.18
0.0525 µM	-2.3
0.16602 µM	-1.73
0.525 µM	-2.65
1.6602 µM	-2.1
5.25 µM	-1.71
16.601958 µM	-1.44
52.5 µM	0.413

CC(=O)C(C)=CC1C(C)=CCCC1(C)C (stereo not drawn) [alpha-Isomethylionone]
Settings	LDH release cytotoxicity [%]
0.03162 µM	-0.906
0.1 µM	-1.92
0.3162278 µM	-1.73
1 µM	-1.69
3.16228 µM	-1.11
10 µM	-1.8
31.6228 µM	-0.46
100 µM	0.422

ClC1C(Cl)C(Cl)C(Cl)C(Cl)C1Cl (stereo not drawn) [beta-Hexachlorocyclohexane]
Settings	LDH release cytotoxicity [%]
0.03162 µM	-4.28
0.1 µM	-4.78
0.3162278 µM	-4.47
1 µM	-4.51
3.16228 µM	-3.52
10 µM	-2.88
31.6228 µM	-2.3
100 µM	-0.552

CCC(c1ccc(O)cc1)C(CC)c1ccc(O)cc1 (stereo not drawn) [meso-Hexestrol]
Settings	LDH release cytotoxicity [%]
0.03162 µM	-1.95
0.1 µM	-2.35
0.3162278 µM	-1.46
1 µM	-1.95
3.16228 µM	-1.99
10 µM	-1.59
31.6228 µM	0.514
100 µM	75.4

Clc1ccc(C(c2ccccc2Cl)C(Cl)(Cl)Cl)cc1 (configuration not stated) [o,p'-DDT]
Settings	LDH release cytotoxicity [%]
0.03162 µM	0.598
0.1 µM	-1.38
0.3162278 µM	-0.542
1 µM	-0.286
3.16228 µM	2.06
10 µM	10.3
31.6228 µM	12.9
100 µM	8.46

COC1C(OC(=O)NC(=O)CCl)CCC2(CO2)C1C1(C)OC1CC=C(C)C (configuration not stated) [o-(Chloroacetylcarbamoyl)fumagillol]
Settings	LDH release cytotoxicity [%]
0.01012 µM	-1.03
0.032 µM	-2.16
0.101193 µM	-2.32
0.32 µM	-2.5
1.01193 µM	-1.78
3.2 µM	-1.64
10.1193 µM	-0.944
32 µM	0.233

Cc1cc(N=Nc2ccccc2C)ccc1N [o-Aminoazotoluene]
Settings	LDH release cytotoxicity [%]
0.03162 µM	1.25
0.1 µM	0.0136
0.3162278 µM	-0.529
1 µM	-1.5
3.16228 µM	0.597
10 µM	-0.361
31.6228 µM	-0.392
100 µM	1.11

Cc1ccccc1O [o-Cresol]
Settings	LDH release cytotoxicity [%]
0.03162 µM	-1.5
0.1 µM	-1.22
0.3162278 µM	-1.45
1 µM	-2.213
3.16228 µM	-1.71
10 µM	-0.686
31.6228 µM	-0.0502
100 µM	12.99

Clc1ccc(C(c2ccc(Cl)cc2)C(Cl)Cl)cc1 [p,p'-DDD]
Settings	LDH release cytotoxicity [%]
0.03162 µM	-1.25
0.1 µM	-1.27
0.3162278 µM	-2.03
1 µM	-1.62
3.16228 µM	-0.977
10 µM	-1.35
31.6228 µM	-1.4
100 µM	0.26

ClC(Cl)=C(c1ccc(Cl)cc1)c1ccc(Cl)cc1 [p,p'-DDE]
Settings	LDH release cytotoxicity [%]
0.03162 µM	-0.311
0.1 µM	-0.017
0.3162278 µM	-0.636
1 µM	-0.675
3.16228 µM	0.0542
10 µM	-0.0981
31.6228 µM	0.0466
100 µM	0.471

Brc1ccc(Oc2ccccc2)cc1 [p-Bromodiphenyl ether]
Settings	LDH release cytotoxicity [%]
0.03162 µM	-0.849
0.1 µM	-1.4
0.3162278 µM	-1.66
1 µM	-1.42
3.16228 µM	-0.77
10 µM	-0.841
31.6228 µM	0.599
100 µM	3.7

Cc1ccc(O)cc1 [p-Cresol]
Settings	LDH release cytotoxicity [%]
0.03162 µM	-0.87
0.1 µM	-2.34
0.3162278 µM	-1.45
1 µM	-0.608
3.16228 µM	-1.02
10 µM	-1.22
31.6228 µM	-0.051
100 µM	1.76

Cc1ccc(C(C)C)cc1 [p-Cymene]
Settings	LDH release cytotoxicity [%]
0.01581 µM	-0.487
0.05 µM	-1.9
0.1581139 µM	-3.02
0.5 µM	-2.63
1.5811388 µM	-1.96
5 µM	-2.1
15.8114 µM	-1.51
50 µM	0.041

CC(C)(C)OOC(=O)c1ccccc1 [tert-Butyl perbenzoate]
Settings	LDH release cytotoxicity [%]
0.03162 µM	-1.33
0.1 µM	-1.77
0.3162278 µM	-1.063
1 µM	-2.35
3.16228 µM	-1.04
10 µM	-1.63
31.6228 µM	-0.865
100 µM	0.38

CC(C)(C)c1ccccc1 [tert-Butylbenzene]
Settings	LDH release cytotoxicity [%]
0.03162 µM	-3.19
0.1 µM	-2.41
0.3162278 µM	-1.88
1 µM	-2.09
3.16228 µM	-1.34
10 µM	-1.35
31.6228 µM	-0.245
100 µM	0.779

CC(C)(C)c1cc(O)ccc1O [tert-Butylhydroquinone]
Settings	LDH release cytotoxicity [%]
0.03162 µM	-1.59
0.1 µM	-1.78
0.3162278 µM	-2.28
1 µM	-2.78
3.16228 µM	-3.35
10 µM	-3.59
31.6228 µM	-4.19
100 µM	-3.84

From the supplement of paper PMC7840683
